In US9828350B2, “5,6-dihydro-2H-[1,4]oxazin-3-yl-amine derivatives useful as inhibitors of beta-secretase (BACE)” (Janssen Pharmaceutica NV, priority 2010, dated 2017):

Legend:
[1] = molecular target: recombinant BACE1 protein (Homo sapiens, UniProt P56817); assay: Biochemical FRET based assay; conditions: recombinant BACE1 1 μg/ml, 120 minutes at room temperature, pH 5.0; for IC50: read-out: Biochemical FRET based assay pIC50 (converted)
Summary of the method: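 Recombinant BACE1 (1 μg/ml final) was incubated 120 minutes at room temperature with […] Mca/Dnp-labelled 13-mer APP Swedish-mutant peptide in 40 mM citrate pH 5.0, 0.04% PEG, 4% DMSO, with or without compound. Cleavage was measured as fluorescence (ex 320/em 405 nm), given as RFU difference between T120 and T0.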

[2] = tested on: Abeta total; assay: Cellular αLisa assay in SKNBE2 cells, Abeta total; format: cell-based, human; conditions: incubated for 18 hours; for IC50: Homo sapiens, SKNBE2, 18 h, read-out: Cellular αLisa assay in SKNBE2 cells Abetatotal pIC50 (converted)
Summary of the method: (§1)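 Human neuroblastoma SKNBE2 cells expressing wild-type hAPP695 were incubated with compound for 18 hours. Secreted Abeta total and Abeta 1-42 in medium were quantified by sandwich αLisa: biotinylated AbN/25 on streptavidin donor beads with Ab4G8 (total) or cAb42/26 (1-42) acceptor beads. Light emission read after 1 hour (ex 650 nm, em 615 nm).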

[3] = tested on: Abeta 1-42; assay: Cellular αLisa assay in SKNBE2 cells, Abeta 1-42; format: cell-based, human; conditions: incubated for 18 hours; for IC50: Homo sapiens, SKNBE2, 18 h, read-out: Cellular αLisa assay in SKNBE2 cells Abeta 42 pIC50 (converted)
Summary of the method: as §1

Sequence of recombinant BACE1 protein (P56817 46-501): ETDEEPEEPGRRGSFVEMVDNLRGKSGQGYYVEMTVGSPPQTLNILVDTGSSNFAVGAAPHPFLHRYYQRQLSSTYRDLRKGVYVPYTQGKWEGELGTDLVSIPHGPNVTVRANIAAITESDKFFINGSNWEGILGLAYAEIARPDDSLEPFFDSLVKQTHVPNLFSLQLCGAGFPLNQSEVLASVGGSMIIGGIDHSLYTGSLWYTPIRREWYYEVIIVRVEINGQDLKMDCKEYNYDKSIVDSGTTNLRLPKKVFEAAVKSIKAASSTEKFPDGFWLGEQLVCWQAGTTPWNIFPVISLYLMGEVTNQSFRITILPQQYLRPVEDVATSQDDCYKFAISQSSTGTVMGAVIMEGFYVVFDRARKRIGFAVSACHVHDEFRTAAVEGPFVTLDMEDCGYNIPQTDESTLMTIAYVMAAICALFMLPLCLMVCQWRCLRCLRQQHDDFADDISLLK

| Compound | IC50 [1] [nM] | Cellular αLisa assay in SKNBE2 cells Abetatotal pIC50 [2] | Cellular αLisa assay in SKNBE2 cells Abeta 42 pIC50 [3] | IC50 [2] [nM] | IC50 [3] [nM] | Biochemical FRET based assay pIC50 [1] |
| --- | --- | --- | --- | --- | --- | --- |
| Cc1ccc(C(=O)Nc2cccc(C3(C)N=C(N)COC3(F)C(F)(F)F)c2)nc1 (single isomer, unassigned) [Compound 191] | 18600 | 5.46 | 5.04 |  |  |  |
| Cc1ccc(C(=O)Nc2cccc(C3(C)N=C(N)COC3(F)C(F)(F)F)c2)nc1 (single isomer, unassigned) [Compound 192] | > 30200 | <5 | <5 |  |  |  |
| Cc1ccc(C(=O)Nc2cccc(C3(C)N=C(N)COC3(F)C(F)(F)F)c2)nc1 (single isomer, unassigned) [Compound 193] | 74.1 | 7.23 | 7.19 |  |  |  |
| Cc1ccc(C(=O)Nc2cccc(C3(C)N=C(N)COC3(F)C(F)(F)F)c2)nc1 (single isomer, unassigned) [Compound 194] | 2000 | 6.13 | 6.08 |  |  |  |
| NC1=NC(c2cccc(NC(=O)c3ccc(Cl)cn3)c2)(C2CC2)COC1 (single isomer, unassigned) [Compound 195] | 53.7 | 8.02 | 8.01 |  |  |  |
| NC1=NC(c2cccc(NC(=O)c3ccc(Cl)cn3)c2)(C2CC2)COC1 (single isomer, unassigned) [Compound 196] | > 30200 | 6.95 | 6.92 |  |  |  |
| CC1(c2cccc(-c3cncc(C#N)c3)c2)N=C(N)COC1C(F)(F)F (single isomer, unassigned) [Compound 205] | 15800 | 5.47 | 5.55 |  |  |  |
| CC1(c2cccc(-c3cncc(C#N)c3)c2)N=C(N)COC1C(F)(F)F (single isomer, unassigned) [Compound 206] | > 30200 | <5 | <5 |  |  |  |
| CC1(c2cccc(-c3cncc(C#N)c3)c2)N=C(N)COC1C(F)(F)F (single isomer, unassigned) [Compound 207] | 3470 | 6.24 | 6.33 |  |  |  |
| CC1(c2cc(-c3cncnc3)ccc2F)N=C(N)COC1C(F)(F)F (single isomer, unassigned) [Compound 238] | 832 | 6.66 | 6.65 |  |  |  |
| CC1(c2cc(-c3cncc(C#N)c3)ccc2F)N=C(N)COC1C(F)(F)F (single isomer, unassigned) [Compound 265] | 525 | 7.16 | 7.16 |  |  |  |
| CC1(c2cc(-c3cncc(C#N)c3)ccc2F)N=C(N)COC1C(F)(F)F (single isomer, unassigned) [Compound 266] | > 30200 | ~5 | <5 |  |  |  |
| CC1(c2cc(-c3cncnc3)ccc2F)N=C(N)COC1C(F)(F)F (single isomer, unassigned) [Compound 267] | > 30200 | <5 | 5.15 |  |  |  |
| CC1(c2cc(-c3cncnc3)ccc2F)N=C(N)COC1C(F)(F)F (single isomer, unassigned) [Compound 268] | 363 | 7.09 | 7 |  |  |  |
| C[C@]1(c2ccnc(-c3cc(Cl)cc(Cl)c3)c2)N=C(N)CO[C@@H]1F (single isomer, unassigned) [Compound 277, (5R*,6R*)-5-[2-(3,5-dichlorophenyl)pyridin-4-yl]-6-fluoro-5-methyl-5,6-dihydro-2H-1,4-oxazin-3-amine] | 219 |  |  | 112 | 107 |  |
| C[C@@]1(c2ccnc(-c3cc(Cl)cc(Cl)c3)c2)N=C(N)CO[C@H]1F (single isomer, unassigned) [Compound 278, (5S*,6S*)-5-[2-(3,5-dichlorophenyl)pyridin-4-yl]-6-fluoro-5-methyl-5,6-dihydro-2H-1,4-oxazin-3-amine] | 8710 |  |  | 3160 | 3240 |  |

| Compound | IC50 [1] [nM] | Cellular αLisa assay in SKNBE2 cells Abetatotal pIC50 [2] | Cellular αLisa assay in SKNBE2 cells Abeta 42 pIC50 [3] | IC50 [2] [nM] | IC50 [3] [nM] | Biochemical FRET based assay pIC50 [1] |
| --- | --- | --- | --- | --- | --- | --- |
| CC1(c2cc(NC(=O)c3cnc(C(F)(F)F)cn3)ccc2F)COCC(N)=N1 (stereo not drawn) [Compound 22] |  | 7.663 | 7.59 |  |  | 6.7 |
| CC1(c2cc(-c3cncc(Cl)c3)c(F)cc2F)COCC(N)=N1 (stereo not drawn) [Compound 23] |  | 6.85 | 6.89 |  |  | 5.86 |
| Cc1ccc(C(=O)Nc2ccc(F)c(C3(C)COCC(N)=N3)c2)nc1 (stereo not drawn) [Compound 24] |  | 7.73 | 7.77 |  |  | 6.77 |
| CC1(c2cc(NC(=O)c3ccc(F)cn3)ccc2F)COCC(N)=N1 (stereo not drawn) [Compound 25] |  | 7.9 | 7.93 |  |  | 6.93 |
| CC1(c2cc(NC(=O)c3ccc(C(F)(F)F)nn3)ccc2F)COCC(N)=N1 (stereo not drawn) [Compound 26] |  | 6.74 | 6.72 |  |  | 5.67 |
| CC1(c2cc(NC(=O)c3ccc(Cl)cc3F)ccc2F)COCC(N)=N1.Cl (stereo not drawn) [Compound 27] |  | 7.04 | 7.06 |  |  | 6.35 |
| CC1(c2cc(NC(=O)c3ccncn3)ccc2F)COCC(N)=N1 (stereo not drawn) [Compound 28] |  | 7.04 | 7.07 |  |  | 6.18 |
| CC1(c2cc(NC(=O)c3ccc(Cl)s3)ccc2F)COCC(N)=N1 (stereo not drawn) [Compound 29] |  | 6.67 | 6.67 |  |  | 6.11 |
| Cc1cccnc1C(=O)Nc1ccc(F)c(C2(C)COCC(N)=N2)c1 (stereo not drawn) [Compound 30] |  | 7.66 | 7.57 |  |  | 6.05 |
| CC1(c2cc(-c3cccc(C(F)(F)F)c3)c(F)cc2F)COCC(N)=N1 (stereo not drawn) [Compound 31] |  | 5.86 | 5.76 |  |  | 4.76 |
| CC1(c2cc(-c3cccc(C#N)c3)c(F)cc2F)COCC(N)=N1 (stereo not drawn) [Compound 32] |  | 6.25 | 6.2 |  |  | 4.87 |
| COc1ccc(-c2cc(C3(C)COCC(N)=N3)c(F)cc2F)cc1 (stereo not drawn) [Compound 33] |  | 5.75 | 5.72 |  |  | 4.91 |
| CC1(c2cc(-c3ccc(Cl)cc3)c(F)cc2F)COCC(N)=N1 (stereo not drawn) [Compound 34] |  | 5.58 | 5.54 |  |  | 5.05 |
| CC1(c2cc(NC(=O)c3ncc(Cl)cc3F)ccc2F)COCC(N)=N1 (stereo not drawn) [Compound 35] |  | 8.4 | 8.37 |  |  | 7.11 |
| CC1(c2cc(-c3cccc(OC(F)(F)F)c3)c(F)cc2F)COCC(N)=N1.Cl (stereo not drawn) [Compound 36] |  | 6.09 | 5.98 |  |  | 5.13 |
| C[C@@]1(c2cc(-c3cc(F)cc(F)c3)c(F)cc2F)COCC(N)=N1 [Compound 37] |  | 6.79 | 6.77 |  |  | 5.45 |
